Source: patent publication EP0054589B1, “Organic phosphoric acid ester derivatives, a process for preparing the same and insecticidal, miticidal or nematocidal compositions containing the same” (priority 1980, dated 1982)

Columns and labels:
tobacco cutworm [1] = experiment: Insecticidal effect on tobacco cutworm (cabbage leaf dip); type: in vivo, Prodenia litura; conditions: Table 3; 500 ppm; after 48 hours, 25°C; emulsifiable concentrate as Formulation Example 1
Summary of the method: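 Cabbage leaves dipped in water-diluted emulsifiable concentrate (two formulations, tests A and B) and air-dried were fed to 3rd-instar tobacco cutworm larvae at 25°C. Percent mortality scored after 48 hours; 3 replicates of 30 insects per compound.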

apple leaf miner = experiment: Insecticidal effect on apple leaf miner (sprayed apple seedling); type: in vivo, Lithocolletis ringoniella; conditions: Phyllonorycter ringoniella, 336 h; Table 10; 500 ppm; fourteen days after spraying; wettable powder as Formulation Example 5; read-out: Percent Morality (%)
Summary of the method: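 Wettable-powder suspensions were sprayed onto potted apple seedlings infested with newly hatched leaf miner larvae, then kept in a greenhouse.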

Beet = experiment: Phytotoxicity on various crops; type: in vivo; design: key: Symbol — indicates that no toxicity was observed; conditions: 500 ppm sprayed; checked visually after 10 days
Summary of the method: (§1)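 Visual phytotoxicity rating at 10 days post-spray, greenhouse-grown plants. Treatment: EC formulation, 500 ppm a.i. in water, sprayed to full coverage. n=3 per compound.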

Green Pepper = experiment: Phytotoxicity on various crops; type: in vivo; design: key: Symbol — indicates that no toxicity was observed; conditions: 500 ppm sprayed; checked visually after 10 days
Summary of the method: as §1

egg plant [2] = experiment: Phytotoxicity on various crops; type: in vivo; design: key: Symbol — indicates that no toxicity was observed; conditions: 500 ppm sprayed; checked visually after 10 days
Summary of the method: as §1

Cabbage = experiment: Phytotoxicity on various crops; type: in vivo; design: key: Symbol — indicates that no toxicity was observed; conditions: 500 ppm sprayed; checked visually after 10 days
Summary of the method: as §1

Rice = experiment: Phytotoxicity on various crops; type: in vivo; design: key: Symbol — indicates that no toxicity was observed; conditions: 500 ppm sprayed; checked visually after 10 days
Summary of the method: as §1

Kidney Bean = experiment: Phytotoxicity on various crops; type: in vivo; design: key: Symbol — indicates that no toxicity was observed; conditions: 500 ppm sprayed; checked visually after 10 days
Summary of the method: as §1

Tea = experiment: Phytotoxicity on various crops; type: in vivo; design: key: Symbol — indicates that no toxicity was observed; conditions: 500 ppm sprayed; checked visually after 10 days
Summary of the method: as §1

Cotton = experiment: Phytotoxicity on various crops; type: in vivo; design: key: Symbol — indicates that no toxicity was observed; conditions: 500 ppm sprayed; checked visually after 10 days
Summary of the method: as §1

Apple = experiment: Phytotoxicity on various crops; type: in vivo; design: key: Symbol — indicates that no toxicity was observed; conditions: 500 ppm sprayed; checked visually after 10 days
Summary of the method: as §1

Cucumber = experiment: Phytotoxicity on various crops; type: in vivo; design: key: Symbol — indicates that no toxicity was observed; conditions: 500 ppm sprayed; checked visually after 10 days
Summary of the method: as §1

Tomato = experiment: Phytotoxicity on various crops; type: in vivo; design: key: Symbol — indicates that no toxicity was observed; conditions: 500 ppm sprayed; checked visually after 10 days
Summary of the method: as §1

tobacco cutworm [3] = experiment: Long-lasting insecticidal effect on tobacco cutworm (sprayed cabbage plantlet); type: in vivo, Prodenia litura; conditions: Table 5, concentration 500 (unit not given), mortality after 48 hours
Summary of the method: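 Cabbage plantlets sprayed with water-diluted emulsifiable concentrate and held in a greenhouse; leaves cut on days 3, 5, 7, 10 and 15 and fed to 3rd-instar larvae at 25°C. Percent mortality scored after 48 h; 3 replicates, 30 insects each.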

rice stem borer = experiment: Insecticidal effect on rice stem borer, 3rd-instar larvae (rice seedling dip); type: in vivo, Chilo suppressalis; conditions: Table 1, after 72 hours, 25°C, wettable powder as Formulation Example 5
Summary of the method: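 Wettable-powder formulations were diluted in water to set concentrations, and rice seedlings were dipped in them. Ten 3rd-instar larvae were placed per capped cup with the treated seedlings and held at 25°C.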

smaller tea tortrix = experiment: Insecticidal effect on smaller tea tortrix (apple leaf dip); type: in vivo; conditions: Adoxophyes orana, foliar; Table 9; 100 ppm; after 72 hours, 25°C; wettable powder as Formulation Example 5; read-out: Percent Mortality
Description: Leaves of an apple tree were dipped into a dilute water suspension of a wettable powder prepared as described in Formulation Example 5. After drying in air, the leaves were charged in a 60 ml volume cup made of vinyl chloride resin, and […] 3rd-instar larvae of smaller tea tortrix were put in each cup. The cups were capped and kept at 25°C. After 72 hours, the number of the surviving insects and the dead insects were recorded to determine percent mortality. In each treatment, 3 cups and 30 insects were used in total.

diamond back moth = experiment: Insecticidal effect on diamond-back moth (cabbage leaf dip); type: in vivo, Plutella xylostella; conditions: Table 7; 100 ppm; after 72 hours, 25°C; emulsifiable concentrate as Formulation Example 1
Summary of the method: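 Cabbage leaves dipped 10 s in water-diluted emulsifiable concentrate at set concentration, air-dried; thirty 3rd-instar diamond-back moth larvae per cup held at 25°C. Percent mortality scored after 72 h, three replicates per treatment.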

carmine mites = experiment: Miticidal effect on carmine mite (sprayed kidney bean seedling); type: in vivo, Tetranychus cinnabarius; conditions: 500 ppm
Description: An emulsifiable concentrate prepared as described in Formulation Example 1 and diluted to a predetermined concentration was sprayed using a spray-gun on a seedling of a kidney bean placed in a pot of 12 cm in diameter to which plant carmine mites were parasitic. After drying in air, seedlings were kept in a green house, and the number of living insects was recorded on the 7th, 14th, 21st and 28th day from the day of application to determine the control effects. Three pots were used for each treatment. The control effect was assessed by the following formula: [formula] • wherein Σ indicates sum and Cb, Tb, Cai and Tai have the following meanings. • Cb: Number of living mites in non-treated sample before application. • Tb: Number of living mites in treated sample before application. • Cai: Number of living mites in non-treated sample 7th, 14th, 21 st or 28th day from the application. • Tai: Number of living mites in treated sample 7th, 14th, 21st or 28th day from the application.

egg plant [4] = experiment: Phytotoxicity observed visually in the mite test on egg plant; type: in vivo; design: key: —: None; +: Slightly toxic; ++: Toxic; +++: Strongly toxic; conditions: 500 ppm, observed visually on the 7th day after the application
Description: (§2) (A) An emulsifiable concentrate prepared as described in Formulation Example 1 and diluted to a predetermined concentration was sprayed using a spray-gun on a seedling of an egg plant placed in a pot of 12 cm in diametre to which plant carmine mites resistant to Kelthane were parasitic. After drying in air, seedlings were kept in a green house, and the number of living insects was recorded on the 7th, 14th, 21 st and 28th day from the day of application to determine the control effects. Three pots were used for each treatment. The control effect was assessed by the formula described in TEST EXAMPLE 7 above. Further, phytotoxicity was observed visually on the 7th day after the application.
as §2, with “(B) An” for “(A) An”, “Example 3” for “Example 1”, “in diameter” for “in diametre”, “in Test” for “in TEST”

[5] = tested on: carmine mites resistant to Kelthane; experiment: Miticidal effect on carmine mite resistant to Kelthane (sprayed egg plant seedling); type: in vivo, Tetranychus cinnabarius; conditions: 500 ppm; for Number of Living Mites after Application 7th Day / Number of Living Mites after Application 14th Day / Number of Living Mites after Application 21st Day / Number of Living Mites after Application 28th Day: egg plant seedling; for Control Effect (%): from mite counts on 7th, 14th, 21st and 28th day
Description: as §2
as §2, with “(B) An” for “(A) An”, “Example 3” for “Example 1”, “in diameter” for “in diametre”, “in Test” for “in TEST”

[6] = Table 13, Formulation Example 1
[7] = Table 14, Formulation Example 3

Row | Compound | Percent Mortality (%) (tobacco cutworm [1]) | Phytotoxicity: Beet (Beet) | Phytotoxicity: Green Pepper (Green Pepper) | Phytotoxicity: Egg Plant (egg plant [2]) | Phytotoxicity: Cabbage (Cabbage) | Phytotoxicity: Rice (Rice) | Phytotoxicity: Kidney Bean (Kidney Bean) | Phytotoxicity: Tea (Tea) | Phytotoxicity: Cotton (Cotton) | Phytotoxicity: Apple (Apple) | Phytotoxicity: Cucumber (Cucumber) | Phytotoxicity: Tomato (Tomato) | Percent Mortality (%) (rice stem borer; 500 ppm) | Percent Mortality (%) (diamond back moth) | Phytotoxicit (egg plant [4]; Table 13) | Number of Living Mites after Application 7th Day [5, 6] | Number of Living Mites after Application 14th Day [5, 6] | Number of Living Mites after Application 21st Day [5, 6] | Number of Living Mites after Application 28th Day [5, 6] | Control Effect (%) ([5]; Table 13) | further results
1 | CCC(C)SP(=O)(OC)Oc1ccc2c(c1)OC(C)=CC2(C)C (stereo not drawn) [Compound No. 16, O-methyl-S-sec-butyl-O-(2,4,4-trimethyl-1,4-benzopyran-7-yi) phosphorothioate] | 100 | — | — | — | — | — | — | — | — | — | — | — | 100 | 100 |  |  |  |  |  |  | mortality at 500 ppm (apple leaf miner): 100%; Percent Mortality After Application 3rd Day (tobacco cutworm [3]; leaves cut on 3rd day): 100%; Percent Mortality After Application 5th Day (tobacco cutworm [3]; leaves cut on 5th day): 100%; Percent Mortality After Application 7th Day (tobacco cutworm [3]; leaves cut on 7th day): 100%; Percent Mortality After Application 10th Day (tobacco cutworm [3]; leaves cut on 10th day): 100%; Percent Mortality After Application 15th Day (tobacco cutworm [3]; leaves cut on 15th day): 100%; Percent Mortality (%) (rice stem borer; 100 ppm): 100%; mortality at 100 ppm (smaller tea tortrix): 100%
2 | OC(c1ccc(Cl)cc1)(c1ccc(Cl)cc1)C(Cl)(Cl)Cl [Kelthane, 2,2,2-trichloro-1,1-bis(4-chlorophenyl)ethanol, reference compound] |  |  |  |  |  |  |  |  |  |  |  |  |  |  | +++(*) | 32 | 0 | 118 | 269 | 61.5 | Control Effect (%) (carmine mites; Table 12, from mite counts on 7th, 14th, 21st and 28th day): 99.0%; Number of Living Mites after Application 7th Day (carmine mites; Table 12, kidney bean seedling): 0; Number of Living Mites after Application 14th Day (carmine mites; Table 12, kidney bean seedling): 0; Number of Living Mites after Application 21st Day (carmine mites; Table 12, kidney bean seedling): 5; Number of Living Mites after Application 28th Day (carmine mites; Table 12, kidney bean seedling): 15; Phytotoxicit (egg plant [4]; Table 14): +++(*); Number of Living Mites after Application 7th Day [5, 7]: 31; Number of Living Mites after Application 14th Day [5, 7]: 58; Number of Living Mites after Application 21st Day [5, 7]: 156; Number of Living Mites after Application 28th Day [5, 7]: 301; Control Effect (%) ([5]; Table 14): 32.3%
3 | CCOP(=O)(Oc1ccc2c(c1)OC(C)=CC2(C)C)SC(C)CC (stereo not drawn) [compound 6] | 100 | — | — | — | — | — | — | — | — | — | — | — | 100 | 100 | — | 0 | 0 | 10 | 54 | 96.4 | Control Effect (%) (carmine mites): 94.9%; Number of Living Mites after Application 7th Day (carmine mites): 0; Number of Living Mites after Application 14th Day (carmine mites): 0; Number of Living Mites after Application 21st Day (carmine mites): 4; Number of Living Mites after Application 28th Day (carmine mites): 45
4 | CCOP(=S)(Oc1ccc2c(c1)OC(C)=CC2(C)C)SC(C)CC (stereo not drawn) [compound 11] | 100 | — | — | — | — | — | — | — | — | — | — | — | 100 | 100 | — | 0 | 3 | 10 | 48 | 97.0 | Phytotoxicit (egg plant [4]; Table 14): —; Number of Living Mites after Application 7th Day [5, 7]: 0; Number of Living Mites after Application 14th Day [5, 7]: 2; Number of Living Mites after Application 21st Day [5, 7]: 17; Number of Living Mites after Application 28th Day [5, 7]: 56; Control Effect (%) ([5]; Table 14): 93.1%
